How the values were obtained:
[1] = biological target: T1, h5HT1A (Homo sapiens, UniProt P08908); assay: 5-HT1A receptor binding (3H-8-OH-DPAT); details: Table 8
T1 construct: expressed in transfected cells; host or cells: COS-7 cells, transient, vector pCEXV-3
Experimental: 5-HT1A Receptor: The cDNA corresponding to the 5-HT1A receptor open reading frames and variable non-coding 5′- and 3′-regions, was cloned into the eukaryotic expression vector pCEXV-3. These constructs were transfected transiently into COS-7 cells by the DEAE-dextran method (Cullen, 1987), and harvested after 72 hours. Radioligand binding assays were performed as described above for the 5-HT2A receptor, except that ^3H-8-OH-DPAT was used as the radioligand and nonspecific binding was determined by the addition of 10 μM mianserin.

[2] = biological target: T2, h5HT6 (Homo sapiens, UniProt P50406); assay: 5-HT6 receptor binding; details: Table 8
T2 construct: expressed in transfected cells
Experimental: Other 5-HT Receptors: Other serotonin receptor binding assays were performed according to published methods: rat 5HT2C receptor (Julius et al., 1988); and 5-HT6 (Monsma, et al., 1993). The binding assays using the 5-HT4 receptor were performed according to the procedures described in U.S. Pat. No. 5,766,879, the disclosure of which is hereby incorporated by reference in its entirety into this application.

[3] = biological target: T3, 5HT transporter (r5HT Uptk) (Rattus norvegicus, UniProt P31652); assay: Binding at native 5HT transporter; details: Table 8
T3 construct: native, tissue-derived transporters; from tissue
Experimental: The binding properties of the compounds of the present invention were evaluated at one or more cloned receptors or native, tissue-derived transporters, using protocols described below.
The methods to determine binding affinity at native transporters are described in the following publications: 5HT transporter and NE transporter (Owens et al., 1997), and DA transporter (Javitch et al, 1984).

[4] = biological target: T4, human α1D adrenergic receptor (Homo sapiens, UniProt P25100); assay: α1D adrenergic receptor binding; details: Table 10
T4 construct: expressed in transfected cells
Text: (§1) Other receptors: Cell membranes expressing human dopamine D1, D2, D4 and rat D3 receptors were purchased through BioSignal, Inc. (Montreal, Canada). Binding assays using the histamine H, receptor; dopamine receptors; and α1A, α1B, and α2 adrenergic receptors may be carried out according to the procedures described in U.S. Pat. No. 5,780,485, the disclosure of which is hereby incorporated by reference in its entirety into this application. Binding assays using the dopamine D5 receptor may be carried out according to the procedures described in U.S. Pat. No. 5,882,855, the disclosure of which is hereby incorporated by reference in its entirety into this application. Binding assays for the human α1D adrenergic receptor may be carried out according to the procedures described in U.S. Pat. No. 6,156,518, the disclosure of which is hereby incorporated by reference in its entirety into this application.

[5] = biological target: T5, human α2B adrenoceptor (Homo sapiens, UniProt P18089); assay: α2B adrenergic receptor binding; details: Table 10
T5 construct: expressed in transfected cells
Text: as §1

[6] = biological target: T6, human dopamine D1 receptor (Homo sapiens, UniProt P21728); assay: Dopamine D1 receptor binding; details: Table 10
T6 construct: purchased BioSignal, Inc. (Montreal, Canada)
Text: as §1

[7] = biological target: human dopamine D5 receptor (Homo sapiens, UniProt P21918); assay: Dopamine D5 receptor binding; details: Table 10
Text: as §1

[8] = tested on: neuropathic rats (chronic constriction nerve injury); assay: Chronic constriction nerve injury model of neuropathic pain: mechanical allodynia (Von Frey filaments); format: in vivo, rat; details: for effect on withdrawal threshold of the nerve-injured hind paw (Von Frey) vs vehicle / withdrawal threshold of the nerve-injured paw to Von Frey filament challenges: 30 mg/kg i.p.; for withdrawal threshold of the nerve-injured paw to Von Frey filament challenges: Day 12 PO
Experimental: The aim of this study was to assess the potential analgesic effects of Example 92 following intraperitoneal administration at the doses of 3, 10 and 30 mg/kg, respectively, in an animal model of neuropathic pain. A peripheral mononeuropathy was induced in the right hind limb of rats following a chronic constriction nerve injury (Bennett and Xie, 1988), and the development of mechanical allodynia and thermal hyperalgesia was monitored using established behavioral tests (Attal, N., et al., 1990; Hargreaves, K., et al., 1988).
Male Sprague-Dawley rats within the weight range of 200-225 g, and approximate age 7-9 weeks, were allowed to acclimate for a minimum of 6 days prior to the start of the behavioral testing.
All rats underwent a chronic constriction nerve injury, and of these, those that successfully developed allodynia and hyperalgesia were allocated to treatment groups.
There were 5 separate treatment groups (with a minimum of 10 rats per group). The treatment groups were as follows: • Group C received Morphine at 10 mg/kg (n=10) • Group D received Vehicle for Example 92* at 1 ml/kg (n=10) (* 100% DMSO) • Group E received Example 92 at 30 mg/kg (n=10) • Group F received Example 92 at 3 mg/kg (n=10) • Group G received Example 92 at 10 mg/kg (n=10)
The dose volume for all treatments was 1 ml/kg. Each rat received a single i.p. dose of the test substance, reference substance or vehicle on Day 12 PO. Test substance and vehicle dosing solutions were encoded (C-G) so that the observers were unaware of the identity of the treatment groups.
The behavioral tests (Von Frey filament and Thermal Plantar Tests—see below) were performed on all rats on 3 separate days prior to […], to establish baseline values. The pre-surgery baseline values were calculated as the mean of the last 2 days testing (the data from the first day of testing were not included as this was classed as part of the acclimating period). The sequence of tests was always mechanical allodynia (Von Frey Test) followed by thermal hyperalgesia (Thermal Plantar Test), with a minimum 5 min period allowed between the 2 tests.
Each animal was placed in a wire mesh cage and a series of Von Frey filaments (ranging from filament handle number 3.61 to 6.10) applied to the plantar surface of the hind paw, from below. The filaments were applied in ascending order (starting with the weakest force) and the withdrawal threshold for both the ipsilateral and contralateral hind paws was evaluated. Each filament was indented on the plantar surface of the foot to the point where it just started to bend, and this was repeated approximately 8-10 times per filament at a frequency of approximately 1 Hz. The withdrawal threshold was defined as the lowest force of two or more consecutive Von Frey filaments to elicit a reflex withdrawal response.
The animals were surgically prepared over 5 days. Each rat was anaesthetized with sodium pentobarbitone (60 mg/ml; 0.6 ml/kg dose, intraperitonealy; batch number 00230; expiry date 22 May 3) and then supplemented as necessary with isoflurane (1-3% in oxygen). The surface around the incision site was shaved and then sterilized with surgical spirit. Under aseptic conditions the right sciatic nerve was exposed by blunt dissection at mid-thigh level and approximately 1 cm of nerve was freed of adhering connective tissue. Four chromic cat gut (4.0) ligatures, spaced at approximately 1 mm inzervals, were then tied so as to barely constrict the nerve (as viewed under 40× magnification) to induce a peripheral mononeuropathy in the right hind limb. The overlying muscle and skin were then closed in layers using suture material, and the anesthesia discontinued. On recovery from anesthesia, the rats were re-housed with their cage mates on soft padded bedding overnight (to reduce the risk of infection) and subsequently on sawdust bedding following full recovery. The animals were allowed 4 full days to recover before the behavioral testing was recommenced. […]

T2 sequence (P50406 whole entry): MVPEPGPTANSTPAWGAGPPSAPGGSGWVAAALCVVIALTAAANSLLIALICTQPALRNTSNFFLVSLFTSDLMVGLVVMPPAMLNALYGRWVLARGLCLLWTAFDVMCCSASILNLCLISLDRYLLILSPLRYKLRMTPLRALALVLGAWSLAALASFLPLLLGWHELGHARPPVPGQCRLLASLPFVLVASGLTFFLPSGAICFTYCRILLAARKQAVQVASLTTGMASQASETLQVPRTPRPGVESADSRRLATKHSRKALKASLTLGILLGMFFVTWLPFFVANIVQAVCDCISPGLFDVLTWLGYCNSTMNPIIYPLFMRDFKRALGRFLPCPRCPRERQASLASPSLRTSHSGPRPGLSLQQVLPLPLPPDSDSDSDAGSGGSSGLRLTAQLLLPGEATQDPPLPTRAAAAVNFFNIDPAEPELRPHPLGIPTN
Sequence of human dopamine D5 receptor (P21918 whole entry): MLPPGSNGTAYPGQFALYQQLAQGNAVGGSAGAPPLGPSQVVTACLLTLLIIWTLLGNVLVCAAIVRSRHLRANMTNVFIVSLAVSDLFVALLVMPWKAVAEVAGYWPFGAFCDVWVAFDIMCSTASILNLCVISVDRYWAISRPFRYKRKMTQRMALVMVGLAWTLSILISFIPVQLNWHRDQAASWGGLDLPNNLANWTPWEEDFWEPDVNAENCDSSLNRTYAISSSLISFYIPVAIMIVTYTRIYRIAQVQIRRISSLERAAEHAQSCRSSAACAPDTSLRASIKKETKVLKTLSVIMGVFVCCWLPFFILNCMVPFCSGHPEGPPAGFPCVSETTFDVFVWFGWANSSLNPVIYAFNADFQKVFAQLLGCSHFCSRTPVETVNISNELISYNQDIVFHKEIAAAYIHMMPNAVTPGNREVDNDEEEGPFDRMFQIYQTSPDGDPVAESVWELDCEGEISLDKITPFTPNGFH
T3 sequence (P31652 whole entry): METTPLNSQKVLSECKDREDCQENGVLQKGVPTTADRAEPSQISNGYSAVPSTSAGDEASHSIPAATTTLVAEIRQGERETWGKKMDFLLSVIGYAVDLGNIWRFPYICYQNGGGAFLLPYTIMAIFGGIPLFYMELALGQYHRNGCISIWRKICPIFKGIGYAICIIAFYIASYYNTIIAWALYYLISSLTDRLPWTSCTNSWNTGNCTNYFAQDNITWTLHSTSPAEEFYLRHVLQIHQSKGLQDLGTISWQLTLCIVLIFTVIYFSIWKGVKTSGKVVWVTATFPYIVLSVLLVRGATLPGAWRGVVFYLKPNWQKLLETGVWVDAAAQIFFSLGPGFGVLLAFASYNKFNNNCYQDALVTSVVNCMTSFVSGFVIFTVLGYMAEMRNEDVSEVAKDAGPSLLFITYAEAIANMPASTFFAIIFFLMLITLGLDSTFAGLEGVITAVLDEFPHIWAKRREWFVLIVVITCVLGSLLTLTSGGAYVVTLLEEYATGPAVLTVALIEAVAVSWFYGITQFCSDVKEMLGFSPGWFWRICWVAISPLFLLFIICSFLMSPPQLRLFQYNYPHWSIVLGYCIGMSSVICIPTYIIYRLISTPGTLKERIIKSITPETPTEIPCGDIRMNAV
T4 sequence (P25100 whole entry): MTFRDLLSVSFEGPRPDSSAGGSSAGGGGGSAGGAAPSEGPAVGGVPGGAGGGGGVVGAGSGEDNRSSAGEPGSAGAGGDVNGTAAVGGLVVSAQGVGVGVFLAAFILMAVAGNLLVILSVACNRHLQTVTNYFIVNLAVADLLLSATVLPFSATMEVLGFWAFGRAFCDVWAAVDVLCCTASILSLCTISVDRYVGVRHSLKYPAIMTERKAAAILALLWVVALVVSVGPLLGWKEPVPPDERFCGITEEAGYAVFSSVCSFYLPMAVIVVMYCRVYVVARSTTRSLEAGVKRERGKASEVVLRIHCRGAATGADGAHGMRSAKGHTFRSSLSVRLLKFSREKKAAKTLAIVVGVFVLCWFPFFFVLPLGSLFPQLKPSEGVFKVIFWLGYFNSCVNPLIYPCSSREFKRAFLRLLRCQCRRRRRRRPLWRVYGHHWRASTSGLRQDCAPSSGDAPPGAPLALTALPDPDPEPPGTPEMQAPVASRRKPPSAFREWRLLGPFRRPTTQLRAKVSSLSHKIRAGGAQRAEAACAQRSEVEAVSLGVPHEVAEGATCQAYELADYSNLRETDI
T5 sequence (P18089 whole entry): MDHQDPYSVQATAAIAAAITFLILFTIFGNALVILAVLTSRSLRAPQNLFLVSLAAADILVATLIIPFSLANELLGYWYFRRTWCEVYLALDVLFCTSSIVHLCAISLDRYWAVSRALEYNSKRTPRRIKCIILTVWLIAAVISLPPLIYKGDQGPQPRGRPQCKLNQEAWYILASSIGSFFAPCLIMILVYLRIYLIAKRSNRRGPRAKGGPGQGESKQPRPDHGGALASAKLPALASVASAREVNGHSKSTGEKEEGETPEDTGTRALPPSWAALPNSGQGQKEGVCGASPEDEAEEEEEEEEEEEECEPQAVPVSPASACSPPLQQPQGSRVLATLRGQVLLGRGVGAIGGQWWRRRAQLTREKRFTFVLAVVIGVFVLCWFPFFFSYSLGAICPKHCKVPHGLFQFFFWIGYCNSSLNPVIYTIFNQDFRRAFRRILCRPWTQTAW
T6 sequence (P21728 whole entry): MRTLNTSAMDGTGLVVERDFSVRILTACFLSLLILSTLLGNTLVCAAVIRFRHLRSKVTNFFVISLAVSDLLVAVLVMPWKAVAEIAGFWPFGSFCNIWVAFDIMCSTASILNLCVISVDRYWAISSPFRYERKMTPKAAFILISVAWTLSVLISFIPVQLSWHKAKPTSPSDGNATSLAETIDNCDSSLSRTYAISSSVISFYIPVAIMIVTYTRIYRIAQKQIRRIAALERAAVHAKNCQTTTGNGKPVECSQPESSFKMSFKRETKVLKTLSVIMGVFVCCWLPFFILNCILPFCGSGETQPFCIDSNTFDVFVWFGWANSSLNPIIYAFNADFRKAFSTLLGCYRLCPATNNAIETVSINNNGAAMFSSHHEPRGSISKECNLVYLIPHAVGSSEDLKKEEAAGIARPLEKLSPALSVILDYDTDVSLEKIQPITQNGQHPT
T1 sequence (P08908 whole entry): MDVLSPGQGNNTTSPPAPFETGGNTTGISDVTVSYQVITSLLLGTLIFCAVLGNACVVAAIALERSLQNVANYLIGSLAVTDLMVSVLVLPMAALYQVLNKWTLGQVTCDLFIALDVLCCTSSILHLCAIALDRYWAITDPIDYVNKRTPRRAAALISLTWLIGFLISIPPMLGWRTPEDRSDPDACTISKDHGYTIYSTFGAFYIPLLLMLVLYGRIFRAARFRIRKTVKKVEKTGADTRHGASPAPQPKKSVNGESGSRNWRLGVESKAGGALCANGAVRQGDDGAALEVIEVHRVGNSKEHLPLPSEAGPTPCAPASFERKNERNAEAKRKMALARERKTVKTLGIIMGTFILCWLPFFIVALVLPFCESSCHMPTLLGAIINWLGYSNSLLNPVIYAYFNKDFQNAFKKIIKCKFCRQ

In the case of O=C1C(=Nc2cccc(C(F)(F)F)c2)c2ccccc2N1c1ccccc1 [Example 92, 1-PHENYL-3-[[3-(TRIFLUOROMETHYL)PHENYL]IMINO]-1,3-DIHYDRO-2H-INDOL-2-ONE], the “selectivity ratio h5HT1A (Ki h5HT1A / Ki hGAL3)” value [1] was >100, the “selectivity ratio h5HT6 (Ki h5HT6 / Ki hGAL3)” value [2] was >100 and the “selectivity ratio r5HT Uptk (Ki r5HT Uptk / Ki hGAL3)” value [3] was >100. The “selectivity ratio hα1D (Ki hα1D / Ki hGAL3)” value [4] was >100, the “selectivity ratio hα2B (Ki hα2B / Ki hGAL3)” value [5] was >100 and the “selectivity ratio hD1 (Ki hD1 / Ki hGAL3)” value [6] was >100. For the same compound, the “selectivity ratio hD5 (Ki hD5 / Ki hGAL3)” value [7] was >100, the “effect on withdrawal threshold of the nerve-injured hind paw (Von Frey) vs vehicle” value ([8]; 30 min PD) was “significantly increased” and the “withdrawal threshold of the nerve-injured paw to Von Frey filament challenges” value ([8]; 30 min PD, vehicle 4.82±2.77 g, P≦0.05) was 25.98 ± 8.25 g. For the same compound, the “effect on withdrawal threshold of the nerve-injured hind paw (Von Frey) vs vehicle” value ([8]; 90 min PD) was “not found to be significant”, the “withdrawal threshold of the nerve-injured paw to Von Frey filament challenges” value ([8]; 90 min PD, vehicle 2.43±1.48 g) was 11.73 ± 6.43 g and the “responses of the uninjured (contralateral) left paw (Von Frey) vs vehicle” value ([8]; 3, 10, 30 mg/kg i.p., any time point) was “No significant changes”. The “effect on withdrawal threshold of the nerve-injured paw (Von Frey) vs vehicle” value ([8]; 3 or 10 mg/kg i.p., any time point) was “no significant effect”.

Source: patent US7220775B2, “Compound useful for the treatment of neuropathic pain” (H. Lundbeck A/S, priority 2002, dated 2007)
